# Results as given in US20250326749A1, “COMPOUNDS, COMPOSITIONS, AND METHODS OF USING THEREOF” (Sionna Therapeutics Inc., priority 2022, published 2025).
# Target: T1, ΔF508-CFTR (Homo sapiens, UniProt P13569, DEL508-508)
# T1 construct: expressed in transfected cells; host or cells: CFSMEo- (human CF submucosal gland epithelial cells, ΔF508/Q2X), transiently transfected by nucleofection
# Test: ΔF508-CFTR-HRP trafficking assay (cell surface expression of ΔF508-CFTR)
# Format: cell-based
# Conditions: CFSMEo- cells transiently transfected with ΔF508-CFTR-HRP; test agent 3 μM, 48 h; HRP chemiluminescence
# In short: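 Surface-expressed ΔF508-CFTR measured via extracellular HRP tag: cell-impermeable chemiluminescent substrate, 5 min, signal normalized to 0.3% DMSO vehicle.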
# T1 sequence (P13569 with tags, fused parts or gaps DEL508-508): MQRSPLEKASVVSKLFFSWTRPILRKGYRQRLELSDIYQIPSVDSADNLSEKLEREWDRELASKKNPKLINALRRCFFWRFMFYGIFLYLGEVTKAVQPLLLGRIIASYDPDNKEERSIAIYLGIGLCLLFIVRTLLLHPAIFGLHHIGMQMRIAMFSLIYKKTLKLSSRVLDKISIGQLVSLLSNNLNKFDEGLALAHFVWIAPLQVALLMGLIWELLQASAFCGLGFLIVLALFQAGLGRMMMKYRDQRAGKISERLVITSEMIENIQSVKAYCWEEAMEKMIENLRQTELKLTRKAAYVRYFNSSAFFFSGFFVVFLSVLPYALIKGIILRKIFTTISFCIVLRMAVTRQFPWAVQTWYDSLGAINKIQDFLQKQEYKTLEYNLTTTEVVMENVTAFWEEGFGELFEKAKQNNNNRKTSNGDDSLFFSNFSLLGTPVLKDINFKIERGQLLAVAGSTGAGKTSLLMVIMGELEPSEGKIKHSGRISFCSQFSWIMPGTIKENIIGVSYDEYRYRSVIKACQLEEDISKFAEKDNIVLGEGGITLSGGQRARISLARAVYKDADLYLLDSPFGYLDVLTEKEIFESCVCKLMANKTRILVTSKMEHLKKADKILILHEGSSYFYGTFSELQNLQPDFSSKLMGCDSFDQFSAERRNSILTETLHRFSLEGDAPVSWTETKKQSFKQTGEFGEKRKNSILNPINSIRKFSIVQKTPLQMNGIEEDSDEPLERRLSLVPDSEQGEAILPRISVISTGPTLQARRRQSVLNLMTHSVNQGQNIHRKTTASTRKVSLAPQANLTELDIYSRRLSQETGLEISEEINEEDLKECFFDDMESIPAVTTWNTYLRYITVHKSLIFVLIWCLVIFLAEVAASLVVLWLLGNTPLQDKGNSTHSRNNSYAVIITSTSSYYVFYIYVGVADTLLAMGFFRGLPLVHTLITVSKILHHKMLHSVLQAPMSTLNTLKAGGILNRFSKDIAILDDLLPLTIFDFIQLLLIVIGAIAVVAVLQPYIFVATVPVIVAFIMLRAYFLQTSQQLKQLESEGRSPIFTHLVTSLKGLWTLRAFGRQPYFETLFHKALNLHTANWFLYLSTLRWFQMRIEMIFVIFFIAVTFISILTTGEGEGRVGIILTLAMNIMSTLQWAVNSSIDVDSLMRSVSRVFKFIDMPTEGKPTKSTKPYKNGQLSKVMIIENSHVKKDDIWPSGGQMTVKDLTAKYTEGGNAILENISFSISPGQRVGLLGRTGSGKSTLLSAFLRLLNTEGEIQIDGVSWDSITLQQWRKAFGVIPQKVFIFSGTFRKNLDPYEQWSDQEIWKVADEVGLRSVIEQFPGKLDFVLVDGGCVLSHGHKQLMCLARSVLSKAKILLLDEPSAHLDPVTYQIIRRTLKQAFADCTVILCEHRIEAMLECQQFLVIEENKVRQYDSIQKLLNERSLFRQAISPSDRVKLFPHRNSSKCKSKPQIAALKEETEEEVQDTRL
row,SMILES,RLUs: ΔF508-CFTR-HRP trafficking data normalized to the vehicle treated control (0.3% DMSO)
1,C[C@@H](Oc1cc(-n2nc(C(F)(F)F)c3c2C(OC24CC(C(=O)O)(C2)C4)CCC3)ccn1)c1ccc2c(c1)OC(F)(F)O2 (stereo partly drawn) [Example 40],A (RLU 5.0 μM-10 μM)
2,"C[C@@H](Oc1cccc(-n2nc(C(F)(F)F)c3c2C(OC24CC(C(=O)O)(C2)C4)CCC3)c1)c1ccc2c(c1)OC(F)(F)O2 (stereo partly drawn) [Example 41, 3-[[1-[3-[(1R)-1-(2,2-difluoro-1,3-benzodioxol-5-yl)ethoxy]phenyl]-3-(trifluoromethyl)-4,5,6,7-tetrahydroindazol-7-yl]oxy]bicyclo[1.1.1]pentane-1-carboxylic acid]",A (RLU 5.0 μM-10 μM)
3,C[C@H](Oc1cc(-n2nc(C(F)(F)F)c3c2[C@@H](OC24CC(C(=O)O)(C2)C4)CCC3)ccn1)c1ccc2c(c1)OC(F)(F)O2 [Example 51],A (RLU 5.0 μM-10 μM)
4,"C[C@H](Oc1cc(-n2nc(C(F)(F)F)c3c2[C@H](OC24CC(C(=O)O)(C2)C4)CCC3)ccn1)c1ccc2c(c1)OC(F)(F)O2 [Example 52, 3-[[(7R)-1-[2-[(1S)-1-(2,2-difluoro-1,3-benzodioxol-5-yl)ethoxy]-4-pyridyl]-3-(trifluoromethyl)-4,5,6,7-tetrahydroindazol-7-yl]oxy]bicyclo[1.1.1]pentane-1-carboxylic acid]",C (RLU 0.0 μM-3.5 μM)
5,"C[C@H](Oc1cncc(-n2nc(C(F)(F)F)c3c2C(Nc2ccc(C(=O)O)cc2)CCC3)c1)c1ccc2c(c1)OC(F)(F)O2 (stereo partly drawn) [Example 69, 4-[[1-[5-[(1S)-1-(2,2-difluoro-1,3-benzodioxol-5-yl)ethoxy]-3-pyridyl]-3-(trifluoromethyl)-4,5,6,7-tetrahydroindazol-7-yl]amino]benzoic acid]",B (RLU 3.5 μM-5.0 μM)
6,"C[C@H](Oc1cccc(-n2nc(C(F)(F)F)c3c2C(Sc2ccc(C(=O)O)cc2)CCC3)c1)c1ccc2c(c1)OC(F)(F)O2 (stereo partly drawn) [Example 70, 4-((1-(3-((S)-1-(2,2-difluorobenzo[d][1,3]dioxol-5-yl)ethoxy)phenyl)-3-(trifluoromethyl)-4,5,6,7-tetrahydro-1H-indazol-7-yl)thio)benzoic acid]",A (RLU 5.0 μM-10 μM)
7,"C[C@H](Oc1cccc(-n2nc(C(F)(F)F)c3c2C(S(=O)(=O)c2ccc(C(=O)O)cc2)CCC3)c1)c1ccc2c(c1)OC(F)(F)O2 (stereo partly drawn) [Example 71, 4-[[1-[3-[(1S)-1-(2,2-difluoro-1,3-benzodioxol-5-yl)ethoxy]phenyl]-3-(trifluoromethyl)-4,5,6,7-tetrahydroindazol-7-yl]sulfonyl]benzoic acid]",C (RLU 0.0 μM-3.5 μM)
8,"CC(Sc1cccc(-n2nc(C(F)(F)F)c3c2C(Oc2ccc(C(=O)O)cc2)CCC3)c1)c1ccc2c(c1)OC(F)(F)O2 (stereo not drawn) [Example 116, 4-[[1-[3-[1-(2,2-difluoro-1,3-benzodioxol-5-yl)ethylsulfanyl]phenyl]-3-(trifluoromethyl)-4,5,6,7-tetrahydroindazol-7-yl]oxy]benzoic acid]",B (RLU 3.5 μM-5.0 μM)
9,"CC(c1ccc2c(c1)OC(F)(F)O2)[S+]([O-])c1cccc(-n2nc(C(F)(F)F)c3c2C(Oc2ccc(C(=O)O)cc2)CCC3)c1 (stereo not drawn) [Example 117, 4-[[1-[3-[1-(2,2-difluoro-1,3-benzodioxol-5-yl)ethylsulfinyl]phenyl]-3-(trifluoromethyl)-4,5,6,7-tetrahydroindazol-7-yl]oxy]benzoic acid]",C (RLU 0.0 μM-3.5 μM)
10,"CC(c1ccc2c(c1)OC(F)(F)O2)S(=O)(=O)c1cccc(-n2nc(C(F)(F)F)c3c2C(Oc2ccc(C(=O)O)cc2)CCC3)c1 (stereo not drawn) [Example 118, 4-[[1-[3-[1-(2,2-difluoro-1,3-benzodioxol-5-yl)ethylsulfonyl]phenyl]-3-(trifluoromethyl)-4,5,6,7-tetrahydroindazol-7-yl]oxy]benzoic acid]",C (RLU 0.0 μM-3.5 μM)
11,"CC(c1ccc2c(c1)OC(F)(F)O2)C1(c2cc(-n3nc(C(F)(F)F)c4c3C(Oc3ccc(C(=O)O)cc3)CCC4)ccn2)COC1 (stereo not drawn) [Example 119, 4-[[1-[2-[3-[1-(2,2-difluoro-1,3-benzodioxol-5-yl)ethyl]oxetan-3-yl]-4-pyridyl]-3-(trifluoromethyl)-4,5,6,7-tetrahydroindazol-7-yl]oxy]benzoic]",C (RLU 0.0 μM-3.5 μM)
12,C[C@H](Oc1cccc(-n2nc(C(F)(F)F)c3c2C(S(=O)(=O)N2CCC(C(=O)O)CC2)CCC3)c1)c1ccc2c(c1)OC(F)(F)O2 (stereo partly drawn) [Example 123],B (RLU 3.5 μM-5.0 μM)
